According to patent publication US20180250321A1, “COMPOSITIONS AND METHODS FOR RESTORING THE IMMUNE SYSTEM” (ORPHEUS THERAPEUTICS, INC., priority 2017, published 2018):

Assays:
NKT cells [1] = details: cited from earlier work
NKT cells [2] = assay: IFNγ production in mice injected with glycolipid in the presence or absence of GD3 (FIG. 18); format: in vivo, wild-type C57BL/6 mice; details: C57BL/6 mice
Protocol: OT-0010 is effective at restoring NKT cell function when wild-type C57BL/6 mice were injected intravenously with either αGalCer (KRN7000) or OT-0010 in the presence or absence of GD3.
In addition, the glycolipids of the present invention are able to fully restore IFN-γ levels, and cause a restoration of NKT cells to a Th-1 response profile (FIG. 18). […] When α-GalCer is administered at a dosage of 3 μgm, only 50% NKT cell function is restored (FIG. 25). While not wishing to be bound by theory, the reason why the glycolipids of the present invention are able to restore NKT cells to a Th-1 response profile is because these glycolipids bind more strongly to CD1d. From a thermodynamic perspective, it is impossible for GD3 to displace these glycolipids from CD1d. […] Again, while not wishing to be bound by theory, it is believed that the glycolipids of the present invention bind more strongly to CD1d due to the incorporation of the -phenyl ring to the distal end of the aliphatic carbon chain attached to the amide group connected to the C1 glycoside linkage of the galactose sugar moiety. The terminal fluorine, —OMe, or —CF3 further enhance the binding of the glycolipids of the present invention to CD1d. The results disclosed in FIG. 18 are unexpected.

Row | Molecule | restoration of IFN-γ levels (NKT cells [1]; FIG. 25, in the presence of GD3) | NKT cell function restored (NKT cells [1]; dosage of 3 μgm, in the presence of GD3, FIG. 25) [%] | IFNγ production (NKT cells [2]; glycolipid + GD3, intravenous) | α-GalCer-induced cytokine production in vivo (IFN-γ, IL-4, IL-12) (NKT cells [1]; 1 μg α-GalCer intravenously with or without GD3, serum ELISA) | IFN-γ production by NKT cells (NKT cells [1]; FIG. 25, effect of GD3) | IFNγ production (NKT cells [2]; substance alone, intravenous)
1 | CCCCCCCCCCCCCCCCCCCCCCCCCC(=O)N[C@@H](CO[C@H]1O[C@H](CO)[C@H](O)[C@H](O)[C@H]1O)[C@H](O)[C@H](O)CCCCCCCCCCCCCC [α-GalCer] | does not restore IFN-γ levels | 50 | Inhibition of IFNγ production |  |  | 
2 | Ganglioside D3 [GD3] |  |  |  | inhibits | dramatic decrease in IFN-γ production | Inhibition of IFNγ production
